In patent US8486651B2, “Method for treating a disorder associated with Eya dysregulation by modulating Eya phosphatase activity” (Children's Hospital Medical Center, priority 2008, dated 2013):

Tests used:
Eya = Eya phosphatase activity pNPP screen, plate controls; type: biochemical; conditions: plate control
Experimental: Phosphatase Activity Assay. Phosphatase activity of Eya is measured using the p-nitrophenyl phosphate (pNPP) assay. In this assay, reaction mixtures of approximately 60 uL in 20 mM MES (pH 5.5), various concentrations of pNPP and cations are pre-equilibrated at 30° C. for 10 minutes. The assay is initiated by the addition of 0.3 ug of enzyme in 20 mM Tris (pH 8.0) and 150 mM NaCl. The reaction mixture is incubated for 20 minutes, and then quenched with 100 uL of 0.4 M EDTA, pH 10.0. Release of p-nitrophenol (pNP) is monitored by measuring absorbance at a wavelength of 410 (A410) and extrapolating the values into the Michaelis-Menten equation using SIGMAPLOT (SPSS Science, Chicago, Ill.). pNP release can be plotted as a function of time when various enzyme concentrations are used.
The protocol is substantially that described in references 4, 17 and 18. Eya phosphatase activity is measured using the model chromogenic substrate p-nitro-phenylphosphate (pNPP) as described. […] To ensure data quality and assay robustness, the Z value is used. The Z value is based on the difference between the signal of the positive control (ie, no test compound) and that of the negative control (no Eya protein or polypeptide). The Z value incorporates the standard deviation of each signal. A Z value of 1.0 is considered perfect, and Z values above 0.5 are generally considered ideal for HTS. […] In both the primary and secondary screen, every plate also contains three additional controls: 20 mM Na-o-vanadate (which inhibits Eya), 20 mM EDTA (which inhibits 100% of Eya activity) and 50 mM NaF (which inhibits Eya).

[1] = system: T1, Six2 fragment derived from mouse Six protein (SEQ ID NO. 6)
T1 sequence: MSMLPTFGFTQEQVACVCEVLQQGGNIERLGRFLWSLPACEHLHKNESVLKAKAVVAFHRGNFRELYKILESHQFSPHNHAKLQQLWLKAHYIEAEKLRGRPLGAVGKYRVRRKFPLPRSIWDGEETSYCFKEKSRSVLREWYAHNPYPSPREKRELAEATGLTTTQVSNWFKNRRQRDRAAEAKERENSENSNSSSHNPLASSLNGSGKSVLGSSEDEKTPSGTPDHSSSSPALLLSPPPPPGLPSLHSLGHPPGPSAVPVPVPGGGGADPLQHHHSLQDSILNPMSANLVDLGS

human SIX6 = target: T2, human SIX6 (UniProt O95475)
T2 sequence: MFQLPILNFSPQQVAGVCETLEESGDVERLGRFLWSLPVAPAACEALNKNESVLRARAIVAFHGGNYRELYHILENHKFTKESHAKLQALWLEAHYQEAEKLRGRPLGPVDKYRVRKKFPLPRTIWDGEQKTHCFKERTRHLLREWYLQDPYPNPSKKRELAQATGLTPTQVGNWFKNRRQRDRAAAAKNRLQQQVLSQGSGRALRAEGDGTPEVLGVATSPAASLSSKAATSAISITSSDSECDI

[2] = system: T3, histone H2AX C-terminus peptide (KKATQASQEpY)
T3 sequence: KKATQASQEY

## O=C(O)CN(CCN(CC(=O)O)CC(=O)O)CC(=O)O [EDTA]
Eya; 20 mM EDTA
  inhibition of Eya activity: 100%

## [Na+].[Na+].[Na+].[O]=[V]([O-])([O-])[O-] [Na-o-vanadate]
Eya; 20 mM Na-o-vanadate
  inhibition of Eya: inhibits Eya

## [F-].[Na+] [NaF]
Eya; 50 mM NaF
  inhibition of Eya: inhibits Eya

## Full-length murine Eya3
[1]
  kcat of Eya3 (dephosphorylation of the H2AX-pY peptide, malachite-green type phosphate release), with stoichiometric SIX2: The interaction with these SIX proteins increases the kcat of Eya3, while the Km values remain relatively similar.
Human SIX6
  kcat of Eya3 (dephosphorylation of the H2AX-pY peptide, malachite-green type phosphate release), with stoichiometric SIX6: The interaction with these SIX proteins increases the kcat of Eya3, while the Km values remain relatively similar.
[2]
  catalytic rate of dephosphorylation of the tyrosine-phosphorylated H2AX peptide: The ability of Eya3 to dephosphorylate a tyrosine-phosphorylated peptide derived from H2AX was monitored in the presence or absence of stoichiometric amounts of either SIX2 or SIX6. The catalytic rate at increasing concentrations of H2AX-pY peptide was measured.
